Here are results for 89 molecules from a melting point compilation (Tetko et al.; mined from patent text by program, amines drawn as free bases though some values may be those of a salt).

Each structure is given as a SMILES string.

`CCOC(=O)C1Nc2ccccc2S(=O)(=O)n2cccc21` (centres undefined) displayed a melting point of 131 to 134 °C.

On to `COC(=O)C(C(=O)OC)c1c(C(=O)OCc2ccc(OC)cc2)cc([N+](=O)[O-])c2ccccc12`, for which the melting point fell in the range of 124 to 125 °C.

With `CCOC(=O)c1cc(C(=O)OC)c(CCN2C(=O)c3ccccc3C2=O)o1`, the melting point was 122 to 123 °C.

Turning to `Cn1ncc2c(=O)n3c(nc21)SC(c1ccccc1)C3c1ccccc1` (centres undefined), the melting point came to 159 °C.

Consider `CC(C)n1nc(-c2ccc(=O)[nH]c2-c2ccccc2)ccc1=O`, for which the melting point fell in the range of 107 to 109 °C.

`O=C(O)c1cn(C2CC2)c2c(C(F)(F)F)c(N3CCN(c4ncccn4)CC3)c(F)cc2c1=O` yielded a melting point of 285 to 287 °C.

`CCCCNC(=O)Nc1ccc(-c2ccncc2)c(C)n1`: the melting point fell in the range of 164 to 165 °C.

As to `COc1cc(C=O)cc(I)c1OCc1ccccc1`, the melting point fell in the range of 53 to 54 °C.

`COc1ccc(-c2nc3cc(Cl)c(Cl)cc3n2C(=O)OCc2ccccc2)cc1N` came in with a melting point of 150 to 160 °C.

As for `CCc1ncc(CCCOc2ccc(-c3nnn(C)n3)cc2)n1C`, the melting point was in the range of 115 to 117 °C.

`OCCCc1ccccc1OCc1ccccc1`: the melting point lay within 45 to 48 °C.

For the molecule `OP(O)C1(NC(c2ccccc2)c2ccccc2)CCCCC1`, the melting point was in the range of 194 to 196 °C.

`O=C(O)[C@H](Cc1ccc(C(F)(F)F)cc1)[C@@H](O)c1ccc(Oc2ccccc2)cc1` (racemic): the melting point fell in the range of 128 to 129 °C.

`COCCOc1c(C)c(N2CCN(c3ccc(C)cc3)CC2)c(C)c2c1OC(C)(C)C2` came in with a melting point of 118 to 120 °C.

`Cn1c(CCC(=O)O)ccc1C(=O)c1ccc(Cl)cc1` yielded a melting point of 188 to 191 °C.

Turning to `COC(=O)c1cccc(CCC(=O)O)c1`, the melting point was 81 °C.

Molecule `CC(C)N(C(=O)c1cccc2c1CCc1cc(C(F)(F)F)ccc1S2)C(C)C` returned a melting point of 122 °C.

In the case of `O=C1C(=Cc2ccc(Cl)cc2)CCCC1=Cc1ccc(Cl)cc1`, the melting point was 142 to 144 °C.

Take `CC(=O)N1c2ccccc2Sc2c1ccc(O)c2Cl`: the melting point came to 214 °C.

Turning to `O=Cc1c2n(c3ccncc13)CCC2`, the melting point was 150 to 151 °C.

As to `ClCc1coc(C=C(c2ccccc2)c2ccccc2)n1`, the melting point fell in the range of 107 to 108 °C.

`CC(C(=O)O)c1ccc2c(c1)Sc1ncccc1CC2=O` (centres undefined): the melting point lay in the range of 150 to 151 °C.

`COc1cc(O)ccc1[N+](=O)[O-]` returned a melting point of 142 °C.

For the molecule `CCOC(=O)C(Cc1ccccc1)NC(=O)COc1ccc(C2=NNC(=O)NC2)cc1Cl` (centres undefined), the melting point fell in the range of 180 to 181 °C.

`Cc1c(C(=O)O)sc2cc(Cc3cccnc3)ccc12` returned a melting point of 250 to 252 °C.

The molecule `CCCC(CCC)Nc1cc(C(=O)OC)ccc1N1C(=O)CCC1(CO)CO` registered a melting point of 139 to 140 °C.

In the case of `CCCCCCCN(CCN1CCN(CCSc2nc3ncccc3o2)CC1)C(=O)Nc1c(C(C)C)cc(O)cc1C(C)C`, the melting point was 100 to 102 °C.

On to `CCOC(=O)C1=Cc2cc(-c3ccc(C)cc3)ccc2SC1`, for which the melting point is 87 °C.

In turn, `O=C1c2ccccc2-c2c1c1ccccc1c(=O)n2CCNS(=O)(=O)c1ccc(Br)cc1` gave a melting point of 260 to 263 °C.

Consider `CC(C)(C)c1cccc(S(=O)(=O)n2c(Cc3ccc(C(=O)O)c(F)c3)cc3cc(C(F)(F)F)ccc32)c1`, for which the melting point turned out to be 144 °C.

For the molecule `Cc1oc(-c2ccccc2)nc1CCC(=NO)c1ccc(CCCC2OC(=O)NC2=O)cc1` (centres undefined), the melting point is 185 to 186 °C.

Consider `CN1CCC(c2nn(-c3ccccc3C(F)(F)F)c3ccccc23)CC1`, for which the melting point was 110 to 111 °C.

The molecule `Cc1cccc(C2NS(=O)(=O)c3ccccc32)c1` (single isomer, unassigned; (+)) had a melting point of 158 to 159 °C.

`CC(C)(C)OC(=O)N1C[C@H](OS(C)(=O)=O)C[C@H]1CO` displayed a melting point of 95 to 96 °C.

With `O=C(O)C1CCc2onc(-c3ccc(Cl)cc3)c2CC1` (centres undefined), the melting point lay within 144 to 145 °C.

Regarding `COC(=O)c1c(OC)c([N+](=O)[O-])c(C(=O)OC)c(OC)c1[N+](=O)[O-]`, the melting point was in the range of 126 to 127 °C.

`CC(=O)c1ccc(-c2ccc(C#N)cc2)o1` displayed a melting point of 115 to 116 °C.

The molecule `COc1ccc(N(N)c2cc(Cl)nc(Cl)n2)cc1` had a melting point of 113 to 115 °C.

In the case of `CS(=O)(=O)c1ccc(-c2oc(CO)cc(=O)c2Oc2ccc(Cl)cc2)cc1`, the melting point is 227 °C.

In turn, `Cc1cc(NS(=O)(=O)c2ccc(NCNc3ccc(S(=O)(=O)Nc4cc(C)on4)cc3)cc2)no1` showed a melting point of 180 to 188 °C.

The molecule `COC(=O)c1ccc2nc(-n3ccnc3)nc(NCCOCCO)c2c1` displayed a melting point of 233 to 235 °C.

`CCCCc1nc(SC)c(C(=O)O)n1Cc1ccc(-c2ccccc2C(=O)O)cc1` gave a melting point of 220 °C.

On to `CCCCCCCCCCCCCCCCCCOS(=O)(=O)NC(=O)Nc1c(C(C)C)cccc1C(C)C`, for which the melting point fell in the range of 95 to 98 °C.

With `Cc1ccc(-c2nc(Sc3ccc(Cl)cc3)cc(N3CCN(CCO)CC3)n2)cc1`, the melting point fell in the range of 123 to 125 °C.

For the molecule `Fc1ccccc1C1=CCc2nnc(Br)n2-c2ccc(Cl)cc21`, the melting point is 222 °C.

For `COC(=O)c1ncn2c3cccc(Cl)c3c(=O)n(C)c12`, the melting point is 210 to 220 °C.

Molecule `C=CCc1c(N2C(=O)C3=C(CCCC3)C2=O)ccc(C)c1O` came in with a melting point of 141 to 143 °C.

Molecule `CCS(=O)(=O)N[C@H](C(=O)NCc1ccc(O)c(OC)c1)C(C)C` yielded a melting point of 49 to 50 °C.

The molecule `Cc1ccc(OCc2c(F)cccc2Cl)c(N)n1` registered a melting point of 108 to 109 °C.

As to `CC[C@H](CO)Nc1nc(Nc2ccccn2)c2ncn(C(C)C)c2n1`, the melting point lay within 30 to 35 °C.

`Brc1cccc(Br)c1I`: the melting point lay within 99 to 100 °C.

Consider `COCc1c(C(=O)OC(C)C)ncc2[nH]c3cccc(OCc4ccccc4)c3c12`, for which the melting point is 173 to 174 °C.

In the case of `Cc1c(C)c(N2CCN(c3ccc(Cl)cc3)CC2)c(C)c2c1OC(C)(C)C2`, the melting point lay in the range of 226 to 229 °C.

Regarding `CCOCc1nc2c(N)nc3ccccc3c2n1CCCCS(=O)(=O)Nc1ccc(OC)cc1`, the melting point was in the range of 229 to 230 °C.

Take `OC(CCl)CNC(c1ccccc1)c1ccccc1` (centres undefined): the melting point lay within 66 to 68 °C.

In the case of `c1cc(OCC2CO2)c2nonc2c1` (centres undefined), the melting point turned out to be 75 °C.

`Cc1cc(O)ccc1Nc1nc(N)ncc1Oc1ccc(Cl)cc1` showed a melting point of 199 to 201 °C.

For the molecule `Nc1nc2[nH]c(CCC#Cc3cscc3C(=O)N[C@@H](CCC(=O)O)C(=O)O)cc2c(=O)[nH]1`, the melting point was in the range of 181 to 182 °C.

As to `CS(=O)(=O)c1cc(Cl)ccc1C(=O)c1cnoc1C1CC1`, the melting point was in the range of 183 to 185 °C.

Turning to `CCOC(=O)c1c(-c2ccncc2)[nH]c(-c2ccncc2)c1-c1ccccc1`, the melting point fell in the range of 99 to 100 °C.

In the case of `Cc1c(C)c2c(c(C)c1NC(=O)CC(C)(C)C)C(c1cccc(C=O)c1)CO2` (centres undefined), the melting point was 178 to 179 °C.

`CCCN(C)C(C)CN1CCc2c(c(=O)oc3cc(OC)ccc23)C1` (centres undefined) displayed a melting point of 69 to 71 °C.

`O=C(c1ccccc1CN1C(=O)C2(COc3cc4c(cc32)CCO4)c2ccccc21)N1CCCCC1` (centres undefined) returned a melting point of 168 to 170 °C.

As to `COCC(=O)Oc1cc(=O)n(-c2ccccc2)c2ncccc12`, the melting point lay in the range of 155 to 157 °C.

As for `CC(C)(C)OC(=O)N1C[C@@H](CC(=O)C(=[N+]=[N-])C(=O)OCc2ccc([N+](=O)[O-])cc2)[C@H]2NC(=O)[C@H]21`, the melting point lay within 132 to 134 °C.

Molecule `CCCn1nc2c(N)nc3ccccc3c2c1CCCCCl` returned a melting point of 172 to 173 °C.

The molecule `COCc1cc(-c2nnc3c4ccccc4c(OCc4ncnn4C)nn23)no1` showed a melting point of 206 to 208 °C.

`O=C(Nc1ccccc1)n1[nH]c(C(F)(F)F)cc1=O`: the melting point is 109 to 110 °C.

`CC(C)Sc1nc(-c2ccc(Cl)cc2)c(CCC(=O)O)o1` yielded a melting point of 132 to 133 °C.

As to `O=C1CCCc2cc(Sc3cccc(F)c3)cc(F)c21`, the melting point was 126 to 127 °C.

The molecule `CS(=O)(=O)n1ccc2c1CC(c1ccccc1)CC2=O` (centres undefined) returned a melting point of 172 to 173 °C.

As for `COc1ccc2sc3c(c2c1)SCCNC3=O`, the melting point was 209 to 210 °C.

Take `COC(=O)c1c(OC)nc2ccc(Cl)cc2c1-c1ccccc1Cl`: the melting point lay in the range of 151 to 152 °C.

Regarding `C#CCOc1cc(-c2cc(C)c(C(F)(F)F)n(C)c2=O)c(F)cc1Cl`, the melting point lay in the range of 107 to 108 °C.

Molecule `CONS(=O)(=O)c1ccc(Cl)s1` gave a melting point of 65.5 to 66.5 °C.

The molecule `CCCOc1cc(CCCOc2c(CC(=O)O)cccc2OC)n(Cc2ccc(C(F)(F)F)cc2)n1` gave a melting point of 122 to 123 °C.

As to `Clc1ccc(N2CCN3CCC2CC3)nn1`, the melting point lay within 127 to 128 °C.

Consider `COc1ccc(Oc2c(C)cc([N+](=O)[O-])cc2C)cc1C(=O)c1ccc(F)cc1`, for which the melting point lay in the range of 167 to 168 °C.

For the molecule `COc1ccc(C(=O)Nc2c(C)c(C)c3c(c2C)C(c2ccc(F)cc2)C(C)(C)O3)cc1` (centres undefined), the melting point lay within 191 to 194 °C.

On to `N#CC(C(=O)Nc1ccccc1)C(=O)c1nn(-c2ccccc2)c2c1Cc1ccc(Cl)cc1-2` (centres undefined), for which the melting point was 259 to 263 °C.

The molecule `COc1ccc2c(c1)c(-c1cc3nccnc3[nH]1)cn2C` yielded a melting point of 270 to 272 °C.

`NC(=O)c1coc(-c2cccc(C3=Nc4ccc(-n5cccc5)cc4NC(=O)C3)c2)n1` registered a melting point of 232 to 234 °C.

`Cc1nc2c(c(=O)[nH]1)-c1ccc(Cl)cc1C(c1ccccc1Cl)=NC2` gave a melting point of 277 to 279 °C.

In the case of `C=C(CCCCCCCCCCCCCCCC)CC(CO)CO`, the melting point fell in the range of 64 to 65 °C.

Consider `COc1ccc2[nH]cc(Cc3cccnc3)c2c1`, for which the melting point worked out at 112 °C.

In turn, `Cc1cccc2nc(C(F)(F)F)n(C3CCC(=O)NC3=O)c(=O)c12` (centres undefined) returned a melting point of 308 to 310 °C.

As to `C=CCN(c1ncnc2c1ncn2CCCCCCCCC(=O)O)C1CCCCC1`, the melting point fell in the range of 100 to 102 °C.

Take `Cc1nc2c(cc1C=O)CCCCC2`: the melting point is 38 to 40 °C.

Turning to `CNC(=O)c1ncn2c(=O)n(CCCl)nnc12`, the melting point was 120 to 122 °C.
